According to patent US20230287044A1, “NOVEL ANTIBACTERIAL PEPTIDE AND USE THEREOF” (priority 2020, published 2023):
In brackets after ≈: the same amount, converted by molar mass. Like-named read-outs stand apart in the source and are kept apart here. Square brackets hold non-standard residues; d marks the D form. Peptide text beside a SMILES is read from it.

How the values were obtained:
[1] = tested on: MRAB (A. baumannii) ATCC BAA 1605; type: cell-based, Acinetobacter baumannii
Outline: (§1)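 Mid-log cultures grown in CAMHB and diluted to 1× 10^6 cfu/ml in PBS were mixed with an equal volume of peptide in CAMHB (80 µM to 0.63 µM twofold dilutions). MIC taken as the mean of three independent experiments.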

[2] = tested on: MRPA (P. aeruginosa) CCARM 2180; type: cell-based, Pseudomonas aeruginosa; settings: CCARM 2180, 18 h
Outline: as §1

[3] = Solubility of antibacterial peptides in solution; type: physicochemical
[4] = tested on: MRSA (S. aureus) KCCM 40510; type: cell-based, Staphylococcus aureus; settings: KCCM 40510, 18 h
Outline: as §1

[5] = tested on: VRE (E. faecalis) ATCC 51575; type: cell-based, Enterococcus faecalis; settings: ATCC 51575, 18 h
Outline: as §1

| Structure (SMILES) | MIC MRPA (P. aeruginosa) CCARM 2180 [2] [µM] | solubility at 12 h ([3]; aqueous buffer) [µM] | solubility at 12 h ([3]; plasma or biological fluid) [µM] | solubility at 12 h ([3]; water) [µM] | MIC MRAB (A. baumannii) ATCC BAA 1605 ([1]; ATCC BAA 1605, 18 h) [µM] | MIC MRSA (S. aureus) KCCM 40510 [4] [µM] | MIC VRE (E. faecalis) ATCC 51575 [5] [µM] | MIC MRAB (A. baumannii) ATCC BAA 1605 ([1]; CAMHB, 37° C., 18 hours, average of three experiments) [µM] |
| --- | --- | --- | --- | --- | --- | --- | --- | --- |
| CC[C@@H](C)[C@@H](NC(=O)[C@@H](Cc1c[nH]c2ccccc12)NC(=O)[C@H](NC(=O)[C@@H](CC(C)C)NC(=O)[C@H](N)Cc1c[nH]c2ccccc12)C(C)C)C(=O)N[C@H](Cc1c[nH]c2ccccc12)C(=O)N[C@H](CCC(N)=O)C(=O)N[C@H](CCCNC(=N)N)C(=O)N[C@H](CCCNC(=N)N)C(=O)N[C@H](CCCNC(=N)N)C(N)=O [KSH30, wlvwiwqrrr] (H-[dW][dL][dV][dW][dI][dW][dQ][dR][dR][dR]-NH2; N-terminus assumed) | >5 | ≥ 25 | 50 (≈ 74.9 µg/mL) | > 2000 |  |  |  | 1.25 (≈ 1.87 µg/mL) |
| CC(C)[C@@H](NC(=O)[C@H](N)Cc1c[nH]c2ccccc12)C(=O)N[C@@H](C(=O)N[C@H](Cc1c[nH]cn1)C(=O)N[C@@H](C(=O)N[C@@H](C(=O)N[C@H](Cc1c[nH]c2ccccc12)C(=O)N[C@H](CCCNC(=N)N)C(=O)N[C@H](CCCNC(=N)N)C(=O)N[C@H](CCCNC(=N)N)C(N)=O)C(C)C)C(C)C)C(C)C [KSH45, wvvhvvwrrr] (H-[dW][dV][dV][dH][dV][dV][dW][dR][dR][dR]-NH2; N-terminus assumed) | 2.5 (≈ 3.48 µg/mL) | > 200 | 50 (≈ 69.6 µg/mL) | > 2000 | 1.25 (≈ 1.74 µg/mL) | 1.25 (≈ 1.74 µg/mL) | 1.25 (≈ 1.74 µg/mL) |  |
| CC[C@@H](C)[C@@H](NC(=O)[C@@H](Cc1c[nH]c2ccccc12)NC(=O)[C@H](NC(=O)[C@@H](CC(C)C)NC(=O)[C@H](N)Cc1c[nH]c2ccccc12)C(C)C)C(=O)N[C@H](Cc1c[nH]c2ccccc12)C(=O)N[C@H](CCCNC(=N)N)C(=O)N[C@H](CCCNC(=N)N)C(N)=O [KSH32, wlvwiwrr] (H-[dW][dL][dV][dW][dI][dW][dR][dR]-NH2; N-terminus assumed) | >5 | 25 (≈ 30.3 µg/mL) | 50 (≈ 60.7 µg/mL) | > 2000 | 1.25 (≈ 1.52 µg/mL) | 1.25 (≈ 1.52 µg/mL) | 1.25 (≈ 1.52 µg/mL) |  |

Further lines, with some results ahead:

| MIC MRPA (P. aeruginosa) CCARM 2180 [2] [µM] | solubility at 12 h ([3]; aqueous buffer) [µM] | solubility at 12 h ([3]; plasma or biological fluid) [µM] | solubility at 12 h ([3]; water) [µM] | MIC MRAB (A. baumannii) ATCC BAA 1605 ([1]; ATCC BAA 1605, 18 h) [µM] | MIC MRSA (S. aureus) KCCM 40510 [4] [µM] | MIC VRE (E. faecalis) ATCC 51575 [5] [µM] | Structure (SMILES) | MIC MRAB (A. baumannii) ATCC BAA 1605 ([1]; CAMHB, 37° C., 18 hours, average of three experiments) [µM] |
| --- | --- | --- | --- | --- | --- | --- | --- | --- |
| >5 | > 200 | 100 (≈ 148 µg/mL) | > 2000 | 5 (≈ 7.42 µg/mL) | 25 (≈ 37.1 µg/mL) | 2.5 (≈ 3.71 µg/mL) | CC[C@@H](C)[C@@H](NC(=O)[C@@H](Cc1c[nH]c2ccccc12)NC(=O)[C@H](NC(=O)[C@@H](CC(C)C)NC(=O)[C@@H](Cc1c[nH]c2ccccc12)NC(=O)[C@H](N)CC(=O)O)C(C)C)C(=O)N[C@H](Cc1c[nH]c2ccccc12)C(=O)N[C@H](CCCNC(=N)N)C(=O)N[C@H](CCCNC(=N)N)C(=O)N[C@H](CCCNC(=N)N)C(N)=O [KSH36, dwlvwiwrrr] (H-[dD][dW][dL][dV][dW][dI][dW][dR][dR][dR]-NH2; N-terminus assumed) |  |
| 5 (≈ 6.71 µg/mL) | ≥ 100 | 100 (≈ 134 µg/mL) | > 2000 | 1.25 (≈ 1.68 µg/mL) | 1.25 (≈ 1.68 µg/mL) | 1.25 (≈ 1.68 µg/mL) | CC(C)[C@@H](NC(=O)[C@H](N)Cc1c[nH]c2ccccc12)C(=O)N[C@@H](C(=O)N[C@H](Cc1c[nH]c2ccccc12)C(=O)N[C@H](Cc1c[nH]c2ccccc12)C(=O)N[C@@H](C(=O)N[C@H](CCCNC(=N)N)C(=O)N[C@H](CCCNC(=N)N)C(=O)N[C@H](CCCNC(=N)N)C(N)=O)C(C)C)C(C)C [KSH40, wvvwwvrrr] (H-[dW][dV][dV][dW][dW][dV][dR][dR][dR]-NH2; N-terminus assumed) |  |
